# Laboratory results reported in paper PMC7002685, “Inhibition of vascular calcification by inositol phosphates derivatized with ethylene glycol oligomers” (Nature Communications, 2020).
# Values joined by “and” are separate entries in the source; they are usually repeats but may differ in a detail not shown here. Equal entries are not always repeated. Where two headings read alike, the source gives them in different places.
# Experiments:
# Monoamine Oxidase MAO-B = biological target: T1, Monoamine Oxidase MAO-B (Homo sapiens, UniProt P27338); experiment: Off-target 140120; assay type: biochemical
# T1 construct: purchased Eurofins Panlabs Discovery Services Taiwan, Ltd
# Description: (§1) The potential off-target activity of 10 µM (OEG2)2-IP4 was assessed against a panel of 87 enzymes, receptors, or ion channels that are used in standard safety pharmacology screens.
# (§2) 3.2. Off-target screening assay
# (§3) The experiments were conducted by a contract research organization (Eurofins Panlabs Discovery Services Taiwan, Ltd.) and details on the respective assays can be retrieved via the catalog number provided in Supplementary Table 11 from the company’s webpage
# (§4) (https://www.eurofinsdiscoveryservices.com/). […]
# (§5) At sacrifice the left tibia of animals of the rat model with dietary adenine/high-phosphate-induced uremia and VC was collected, fixed with 70% v/v EtOH and embedded in methyl methacrylate. The trabecular bone compartment is known to be the most metabolic active i.e. actively re-structured bone compartment in CKD. Therefore, histomorphometric and micro-computed tomography (µCT) analysis of bone was performed on the trabecular compartment. Tibial sections were Goldner-stained for histomorphometric analysis of the proximal metaphysis using the AxioVision Release 4.5 software, as […]
# (§6) described previously5. […]
# Adenosine A1 = biological target: T2, Adenosine A1 (Homo sapiens, UniProt P30542); experiment: Off-target 200510; assay type: binding
# T2 construct: purchased Eurofins Panlabs Discovery Services Taiwan, Ltd
# Description: as §1, §2
# (§7) The experiments were conducted by a contract research organization (Eurofins Panlabs Discovery
# (§8) Services Taiwan, Ltd.) and details on the respective assays can be retrieved via the catalog number
# (§9) provided in Supplementary Table 11 from the company’s webpage
# as §4
# [1] = Urinary excretion after s.c. administration; assay type: in vivo, rat; conditions: 10 mg/kg s.c.; for Cumulative recovery from rat urine / dose excreted: healthy rats; for dose excreted: rat, urine, subcutaneous, 10 mg/kg, read-out: Cumulative recovery from rat urine
# Description: To study urinary excretion, six animals were administered s.c. 10 mg/kg of (OEG2)2-IP4 and two animals served as blank urine controls. Animals were placed in separated metabolic cages ([…] S.p.A. Buguggiate, Italy) right after dosing, left there for the entire experiment, and urine was collected after 2, 5, 8, and 24 h. At the end of the experiment, cages were washed with 10 mL water and the washes were collected in separated tubes. Urine samples were centrifuged at 3000 × g and 4 °C for 10 min and stored at −20 °C until quantification of (OEG2)2-IP4 by LC-MS/MS. Recovery (%) was calculated using Eq. (2).2 Recovery%=OEG22IP4μg/doseμg×ratweightkg×100.
# Adenosine A2A = biological target: T3, Adenosine A2A (Homo sapiens, UniProt P29274); experiment: Off-target 200610; assay type: binding
# T3 construct: purchased Eurofins Panlabs Discovery Services Taiwan, Ltd
# Description: as §1, §2, §3, §4, §5, §6
# [2] = biological target: T4, Transporter, Dopamine (DAT) (Homo sapiens, UniProt Q01959); experiment: Off-target 220320; assay type: binding
# T4 construct: purchased Eurofins Panlabs Discovery Services Taiwan, Ltd
# Description: as §1, §2, §7, §8, §9, §4
# [3] = tested on: GABAA, Ro-15-1788, Hippocampus; experiment: Off-target 226630; assay type: binding, Rat; conditions: 10 µM
# Description: as §1, §2, §7, §8, §9, §4
# [4] = biological target: T5, Serotonin (5-Hydroxytryptamine) 5-HT2B (Homo sapiens, UniProt P41595); experiment: Off-target 271700; assay type: binding
# T5 construct: purchased Eurofins Panlabs Discovery Services Taiwan, Ltd
# Description: as §1, §2, §3, §4, §5, §6
# [5] = tested on: Glutamate, NMDA, Phencyclidine; experiment: Off-target 233000; assay type: binding, Rat; conditions: 10 µM
# Description: as §1, §2, §3, §4, §5, §6
# hERG potassium channel = biological target: T6, hERG potassium channel (Homo sapiens, UniProt Q12809); experiment: Off-target 265900; assay type: binding
# T6 construct: purchased Eurofins Panlabs Discovery Services Taiwan, Ltd
# Description: as §1, §2, §3, §4, §5, §6
# [6] = tested on: panel of 87 enzymes, receptors, or ion channels; experiment: Off-target panel of 87 enzymes, receptors, or ion channels; assay type: biochemical; conditions: 10 µM
# Description: as §1, §2, §3, §4, §5, §6
# Angiotensin AT1 = biological target: T7, Angiotensin AT1 (Homo sapiens, UniProt P30556); experiment: Off-target 210030; assay type: binding
# T7 construct: purchased Eurofins Panlabs Discovery Services Taiwan, Ltd
# Description: as §1, §2, §3, §4, §5, §6
# [7] = biological target: T8, (Homo sapiens, UniProt P25100); experiment: Off-target 203400; assay type: binding
# T8 construct: purchased Eurofins Panlabs Discovery Services Taiwan, Ltd
# Description: as §1, §2, §3, §4, §5, §6
# Sodium Channel, Site 2 = experiment: Off-target 279510; assay type: binding, Rat; conditions: 10 µM
# Description: as §1, §2, §7, §8, §9, §4
# [8] = Protein binding in human plasma (ultrafiltration); assay type: in vitro ADME
# Description: For many drugs, the PK profile depends on the patient’s renal status. Therefore, (OEG2)2-IP4 PK profile was also determined in an adenine and high-phosphate-diet-induced rat model of uremia, in which the compound was administered after serum creatinine levels had increased by fourfold relative to baseline (Fig. 4g, h). […] Similar results were observed following s.c. administration (Supplementary Table 5).
# as §2
# The experiments were conducted by a contract research organization (Eurofins Panlabs Discovery Services Taiwan, Ltd.) and details on the respective assays can be retrieved via the catalog number provided in Supplementary Table 11 from the company’s webpage […]
# Concentrations of unbound (OEG2)2-IP4 in ultrafiltrated fractions and total (OEG2)2-IP4 concentrations were measured using a calibration prepared in ultrafiltrated pooled plasma and non-ultrafiltrated pooled plasma, respectively and LC-MS/MS quantification as described in Methods 6.3.
# At sacrifice the left tibia of animals of the rat model with dietary adenine/high-phosphate-induced uremia and VC was collected, fixed with 70% v/v EtOH and embedded in methyl methacrylate. […] The total bone area (as percentage of total tissue area), osteoid area (as percentage of total bone area), and mineralized bone area (as percentage of total tissue area) were calculated from the primary measurements. […]
# Bradykinin B2 = biological target: T9, Bradykinin B2 (Homo sapiens, UniProt P30411); experiment: Off-target 212320; assay type: binding
# T9 construct: purchased Eurofins Panlabs Discovery Services Taiwan, Ltd
# Description: as §1, §2, §3, §4, §5, §6
# T4 sequence (Q01959 whole entry): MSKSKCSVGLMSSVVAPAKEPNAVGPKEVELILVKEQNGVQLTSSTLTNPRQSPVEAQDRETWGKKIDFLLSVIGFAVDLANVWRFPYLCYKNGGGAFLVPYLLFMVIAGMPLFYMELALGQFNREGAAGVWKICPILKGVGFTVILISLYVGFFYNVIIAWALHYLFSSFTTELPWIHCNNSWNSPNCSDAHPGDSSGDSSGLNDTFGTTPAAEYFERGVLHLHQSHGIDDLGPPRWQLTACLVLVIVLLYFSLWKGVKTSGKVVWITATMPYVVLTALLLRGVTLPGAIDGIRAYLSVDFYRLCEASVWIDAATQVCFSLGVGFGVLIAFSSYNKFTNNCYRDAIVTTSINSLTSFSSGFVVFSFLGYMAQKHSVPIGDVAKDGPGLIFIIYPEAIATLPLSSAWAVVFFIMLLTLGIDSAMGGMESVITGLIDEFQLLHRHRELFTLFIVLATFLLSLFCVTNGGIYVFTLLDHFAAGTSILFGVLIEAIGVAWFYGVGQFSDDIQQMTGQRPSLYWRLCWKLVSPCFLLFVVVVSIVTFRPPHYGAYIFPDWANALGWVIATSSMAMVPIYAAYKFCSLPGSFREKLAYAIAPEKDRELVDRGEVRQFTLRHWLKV
# T6 sequence (Q12809 whole entry): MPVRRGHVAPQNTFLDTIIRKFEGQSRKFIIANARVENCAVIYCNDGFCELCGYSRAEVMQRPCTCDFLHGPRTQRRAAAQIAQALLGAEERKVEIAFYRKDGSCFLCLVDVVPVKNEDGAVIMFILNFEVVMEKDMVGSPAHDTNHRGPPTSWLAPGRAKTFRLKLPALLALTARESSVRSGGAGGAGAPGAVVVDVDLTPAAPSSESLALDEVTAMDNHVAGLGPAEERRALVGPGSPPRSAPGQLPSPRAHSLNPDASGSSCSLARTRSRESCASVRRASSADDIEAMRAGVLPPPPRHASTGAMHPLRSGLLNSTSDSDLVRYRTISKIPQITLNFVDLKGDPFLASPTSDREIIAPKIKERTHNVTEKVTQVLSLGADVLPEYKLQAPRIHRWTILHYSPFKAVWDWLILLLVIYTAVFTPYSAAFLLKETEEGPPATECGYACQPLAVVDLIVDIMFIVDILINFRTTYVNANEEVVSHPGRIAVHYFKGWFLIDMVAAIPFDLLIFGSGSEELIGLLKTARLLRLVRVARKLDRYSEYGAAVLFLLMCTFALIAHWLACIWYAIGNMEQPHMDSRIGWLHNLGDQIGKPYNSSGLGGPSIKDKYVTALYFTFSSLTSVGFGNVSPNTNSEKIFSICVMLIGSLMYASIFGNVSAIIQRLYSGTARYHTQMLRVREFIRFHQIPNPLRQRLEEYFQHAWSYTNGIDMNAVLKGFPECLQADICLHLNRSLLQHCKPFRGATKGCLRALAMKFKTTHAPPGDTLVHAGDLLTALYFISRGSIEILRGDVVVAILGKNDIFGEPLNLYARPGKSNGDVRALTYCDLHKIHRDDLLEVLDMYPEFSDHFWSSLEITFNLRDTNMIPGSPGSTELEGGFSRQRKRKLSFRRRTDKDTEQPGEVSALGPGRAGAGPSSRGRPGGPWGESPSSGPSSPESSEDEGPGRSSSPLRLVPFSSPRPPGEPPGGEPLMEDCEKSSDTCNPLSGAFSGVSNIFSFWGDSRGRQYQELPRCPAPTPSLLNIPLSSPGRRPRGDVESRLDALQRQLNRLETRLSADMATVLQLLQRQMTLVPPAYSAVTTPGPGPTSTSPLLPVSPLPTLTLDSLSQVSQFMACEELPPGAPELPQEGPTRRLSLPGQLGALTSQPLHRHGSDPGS
# T3 sequence (P29274 whole entry): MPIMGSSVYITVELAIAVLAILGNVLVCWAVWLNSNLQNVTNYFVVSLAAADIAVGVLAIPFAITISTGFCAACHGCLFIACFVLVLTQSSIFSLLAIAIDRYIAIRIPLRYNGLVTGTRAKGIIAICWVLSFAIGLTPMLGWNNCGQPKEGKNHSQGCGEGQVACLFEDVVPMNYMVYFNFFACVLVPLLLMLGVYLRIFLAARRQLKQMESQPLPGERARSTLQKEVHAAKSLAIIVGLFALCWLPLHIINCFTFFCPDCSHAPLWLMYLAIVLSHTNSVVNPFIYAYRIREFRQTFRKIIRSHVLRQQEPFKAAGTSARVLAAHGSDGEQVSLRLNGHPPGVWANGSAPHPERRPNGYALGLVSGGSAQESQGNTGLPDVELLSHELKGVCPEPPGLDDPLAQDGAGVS
# T8 sequence (P25100 whole entry): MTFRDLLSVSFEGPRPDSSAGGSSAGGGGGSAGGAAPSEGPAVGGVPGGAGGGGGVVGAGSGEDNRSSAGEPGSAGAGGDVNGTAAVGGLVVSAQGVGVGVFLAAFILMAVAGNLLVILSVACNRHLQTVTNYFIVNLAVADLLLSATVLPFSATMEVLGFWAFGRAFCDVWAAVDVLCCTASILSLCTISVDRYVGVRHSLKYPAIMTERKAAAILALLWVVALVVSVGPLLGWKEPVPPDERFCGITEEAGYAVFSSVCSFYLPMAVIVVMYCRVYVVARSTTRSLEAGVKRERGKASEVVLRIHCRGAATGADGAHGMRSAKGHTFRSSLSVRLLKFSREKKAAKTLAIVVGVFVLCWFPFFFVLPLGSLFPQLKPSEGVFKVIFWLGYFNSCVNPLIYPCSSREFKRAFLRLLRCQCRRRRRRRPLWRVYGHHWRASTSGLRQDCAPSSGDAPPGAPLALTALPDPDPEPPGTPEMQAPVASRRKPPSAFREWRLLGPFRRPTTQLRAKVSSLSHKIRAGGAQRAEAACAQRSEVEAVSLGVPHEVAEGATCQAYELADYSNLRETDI
# T5 sequence (P41595 whole entry): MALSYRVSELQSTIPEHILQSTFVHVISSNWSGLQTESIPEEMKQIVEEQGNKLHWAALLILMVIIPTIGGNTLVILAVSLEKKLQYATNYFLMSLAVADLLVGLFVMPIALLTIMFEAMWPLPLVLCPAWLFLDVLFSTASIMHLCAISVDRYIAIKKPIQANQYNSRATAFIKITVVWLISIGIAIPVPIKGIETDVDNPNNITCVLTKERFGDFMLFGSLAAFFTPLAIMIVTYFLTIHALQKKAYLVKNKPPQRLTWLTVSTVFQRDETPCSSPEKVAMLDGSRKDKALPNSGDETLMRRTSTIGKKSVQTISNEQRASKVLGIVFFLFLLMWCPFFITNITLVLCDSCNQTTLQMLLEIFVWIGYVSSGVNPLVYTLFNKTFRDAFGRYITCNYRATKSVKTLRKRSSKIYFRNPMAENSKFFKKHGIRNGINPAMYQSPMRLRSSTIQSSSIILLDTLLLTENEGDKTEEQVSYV
# T9 sequence (P30411 whole entry): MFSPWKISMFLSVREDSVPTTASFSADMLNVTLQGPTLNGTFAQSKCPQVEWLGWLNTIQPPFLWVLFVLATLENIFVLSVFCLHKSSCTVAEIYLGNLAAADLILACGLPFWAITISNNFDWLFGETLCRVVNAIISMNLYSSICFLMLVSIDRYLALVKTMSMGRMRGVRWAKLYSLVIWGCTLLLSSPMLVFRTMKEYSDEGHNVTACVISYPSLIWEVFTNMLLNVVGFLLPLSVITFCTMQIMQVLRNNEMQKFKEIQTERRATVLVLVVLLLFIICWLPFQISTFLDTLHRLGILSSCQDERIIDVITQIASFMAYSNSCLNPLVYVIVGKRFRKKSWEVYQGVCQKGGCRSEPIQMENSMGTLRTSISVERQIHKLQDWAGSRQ
# T7 sequence (P30556 whole entry): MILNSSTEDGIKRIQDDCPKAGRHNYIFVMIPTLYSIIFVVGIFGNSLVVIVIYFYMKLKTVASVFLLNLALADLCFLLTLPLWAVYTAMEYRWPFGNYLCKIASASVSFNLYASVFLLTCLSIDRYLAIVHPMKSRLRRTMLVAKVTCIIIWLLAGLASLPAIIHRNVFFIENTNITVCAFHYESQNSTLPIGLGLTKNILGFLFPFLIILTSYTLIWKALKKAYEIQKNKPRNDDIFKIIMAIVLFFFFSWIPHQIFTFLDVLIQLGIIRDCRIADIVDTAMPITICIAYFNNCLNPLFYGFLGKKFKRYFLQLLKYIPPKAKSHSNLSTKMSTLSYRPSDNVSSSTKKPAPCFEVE
# T1 sequence (P27338 whole entry): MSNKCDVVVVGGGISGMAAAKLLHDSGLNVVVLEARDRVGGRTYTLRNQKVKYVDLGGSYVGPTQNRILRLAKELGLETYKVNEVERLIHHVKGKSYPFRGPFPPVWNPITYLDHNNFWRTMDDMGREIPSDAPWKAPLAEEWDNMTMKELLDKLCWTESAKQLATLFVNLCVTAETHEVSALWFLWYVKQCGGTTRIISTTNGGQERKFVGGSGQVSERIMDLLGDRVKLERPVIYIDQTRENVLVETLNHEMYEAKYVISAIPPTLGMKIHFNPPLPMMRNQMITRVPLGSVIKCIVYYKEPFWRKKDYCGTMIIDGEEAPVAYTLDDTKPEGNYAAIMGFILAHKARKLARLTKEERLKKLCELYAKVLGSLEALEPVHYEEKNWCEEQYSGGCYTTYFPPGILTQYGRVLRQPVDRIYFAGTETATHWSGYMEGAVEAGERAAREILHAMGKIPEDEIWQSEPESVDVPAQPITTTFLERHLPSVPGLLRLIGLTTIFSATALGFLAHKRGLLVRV
# T2 sequence (P30542 whole entry): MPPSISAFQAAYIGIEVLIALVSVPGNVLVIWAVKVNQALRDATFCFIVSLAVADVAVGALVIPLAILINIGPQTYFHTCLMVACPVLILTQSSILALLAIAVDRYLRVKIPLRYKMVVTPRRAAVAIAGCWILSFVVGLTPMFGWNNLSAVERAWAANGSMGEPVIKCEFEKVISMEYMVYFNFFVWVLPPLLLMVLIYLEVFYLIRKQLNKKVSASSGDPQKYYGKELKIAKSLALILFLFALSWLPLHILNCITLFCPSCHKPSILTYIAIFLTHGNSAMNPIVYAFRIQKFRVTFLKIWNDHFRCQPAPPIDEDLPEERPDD
smiles,measurement,setting,value
"COCCOCCO[C@@H]1[C@@H](OP(=O)(O)O)[C@H](OCCOCCOC)[C@@H](OP(=O)(O)O)[C@@H](OP(=O)(O)O)[C@H]1OP(=O)(O)O [(OEG2)2-IP4, 4,6-Di-O-(methoxy-diethyleneglycol)-myo-inositol-1,2,3,5-tetrakis(phosphate)]",inhibition at 10 µM,Monoamine Oxidase MAO-B,0%
same,inhibition at 10 µM,Adenosine A1,4%
same,intact dose recovered in the urine of healthy rats,[1],Forty percent
same,Cumulative recovery from rat urine,"[1]; 2 h, individual rats Fig. 4j",21.7% and 21.3% and 24.6% and 20.5%
same,Cumulative recovery from rat urine,[1]; 8 h,49% and 34.7% and 40.7% and 37.3% and 32.9%
same,Cumulative recovery from rat urine,[1]; 24 h,52.9% and 39.5% and 42.5% and 38.2% and 34.7%
same,dose excreted,"[1]; 2 h, individual rats Fig. 4j",26.7%
same,dose excreted,[1]; 8 h,29.8%
same,dose excreted,[1]; 24 h,34.4%
same,inhibition at 10 µM,Adenosine A2A,5%
same,inhibition at 10 µM,[2],19%
same,% Inhibition,[3],5%
same,inhibition at 10 µM,[4],1%
same,% Inhibition,[5],7%
same,inhibition at 10 µM,hERG potassium channel,11%
same,off-target activity in 87 biochemical assays,[6],did not significantly inhibit or stimulate any
same,inhibition at 10 µM,Angiotensin AT1,0%
same,inhibition at 10 µM,[7],10%
same,% Inhibition,"Sodium Channel, Site 2",-1%
same,protein-bound fraction in healthy human plasma,[8]; total measured concentration 2.8 µg/mL (4 µM),58%
same,protein-bound fraction in healthy human plasma,[8]; total measured concentration 27.5 µg/mL (39.5 µM),42%
same,inhibition at 10 µM,Bradykinin B2,-17%
